Values of other authors, collected in patent publication US20190383817A1, “PREDICTING RESPONSE TO IMMUNOMODULATORY DRUGS (IMIDS) IN MULTIPLE MYELOMA PATIENTS” (SKYLINEDX B.V., priority 2016, published 2019).

Assays:
[1] = system: IKAROS transcription factors; details: compared with thalidomide
MM patients = details: compared against non-Bortezomib containing regimes such as VAD
CRBN = details: comparison among thalidomide, lenalidomide, pomalidomide

SMILES | efficiency at targeting IKAROS transcription factors for degradation by CRBN [1] | Overall Survival (OS) (MM patients) | Progression Free Survival (PFS) (MM patients) | binding to CRBN (CRBN)
Cc1cccc2c1C(=O)N(C1CCC(=O)NC1=O)C2=O (stereo not drawn) [2-(2,6-dioxopiperidin-3-yl)-4-methylisoindoline-1,3-dione] | more efficient | – | – | –
CC(C)C[C@H](NC(=O)[C@H](Cc1ccccc1)NC(=O)c1cnccn1)B(O)O [Bortezomib] | – | significantly prolonged | significantly prolonged | –
Nc1cccc2c1C(=O)N(C1CCC(=O)NC1=O)C2=O (stereo not drawn) [pomalidomide, 4-Amino-2-(2,6-dioxopiperidin-3-yl)isoindole-1,3-dione] | more efficient | – | – | bind similarly to CRBN
O=C1CCC(N2C(=O)c3ccccc3C2=O)C(=O)N1 (stereo not drawn) [thalidomide, 2-(2,6-dioxopiperidin-3-yl)-1H-isoindole-1,3(2H)-dione] | – | – | – | bind similarly to CRBN
